According to patent US20250177429A1, “ORALLY ACTIVE PRODRUG OF GEMCITABINE” (Laevoroc Chemotherapy AG, priority 2022, published 2025):
Read-outs that look alike come from different tables or passages of the source.

Assays:
[1] = Solubility of the mono-hydrochloride salt in water and buffer solutions; assay type: physicochemical; details: thermodynamic from solid; for solubility at 15 min: solid added until saturation
Description: In each case, a first estimation was performed by adding small amounts of solvents until dissolution of the solid (50 mg), followed by a second estimation performed through the addition of small amounts of solid to a determined quantity of solvent until saturation was reached (suspension observed after 15 min). This second estimation was undertaken twice for each solution.

[2] = Powder stability of the API on storage; assay type: physicochemical; details: powder form of the API, FIG. 3
[3] = Stability in aqueous media at RT; assay type: physicochemical
Excerpt: Regarding to the MS profile, most of the observed impurities concern a valproic moiety cleavage and/or valine moiety migration/cleavage. […] In agreement with earlier observation, a lower acidity medium will likely result in a higher ratio of valine hydrolysis.

CDA = CDA (Homo sapiens, UniProt P32320); details: Bender et al. 2009; cited from earlier work
Japanese patients = details: phase I, 2013; cited from earlier work
[4] = result of first pass metabolism; Shipley et al. 1992; cited from earlier work
mice = details: cited from earlier work

Chain of CDA (P32320 whole entry, species assumed): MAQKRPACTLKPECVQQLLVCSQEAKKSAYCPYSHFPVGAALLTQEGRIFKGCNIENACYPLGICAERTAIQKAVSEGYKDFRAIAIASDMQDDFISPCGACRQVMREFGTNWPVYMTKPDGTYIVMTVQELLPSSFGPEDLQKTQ

CCCC(CCC)C(=O)Nc1ccn([C@@H]2O[C@H](CO)[C@@H](OC(=O)[C@@H](N)C(C)C)C2(F)F)c(=O)n1.Cl [LR-06-B.HCl, (2R,3R,5R)-4,4-difluoro-2-(hydroxymethyl)-5-(2-oxo-4-(2-propylpentanamido)-1,2-dihydropyrimidin-1-yl)oxolan-3-yl (2S)-2-amino-3-methylbutanoate hydrochloride]
solubility ([1]; buffer solution pH 1.2, pH 1.2, simulated gastric fluid, Buffer pH 1.2, read-out: Mean solubility): 211 mg/mL
solubility at 15 min ([1]; buffer solution pH 1.2, pH 1.2, simulated gastric fluid, Buffer pH 1.2, read-out: Solubility, Estimation 2a): 217 mg/mL
solubility at 15 min ([1]; buffer solution pH 1.2, pH 1.2, simulated gastric fluid, Buffer pH 1.2, read-out: Solubility, Estimation 2b): 208 mg/mL
solubility ([1]; buffer solution pH 1.2, pH 1.2, simulated gastric fluid, Buffer pH 1.2, solvent added until dissolution of 50 mg solid, read-out: Solubility, Estimation 1): 207 mg/mL
solubility ([1]; buffer solution pH 4.5, pH 4.5, aqueous buffer, Buffer pH 4.5, read-out: Mean solubility): 227 mg/mL
solubility at 15 min ([1]; buffer solution pH 4.5, pH 4.5, aqueous buffer, Buffer pH 4.5, read-out: Solubility, Estimation 2a): 236 mg/mL
solubility at 15 min ([1]; buffer solution pH 4.5, pH 4.5, aqueous buffer, Buffer pH 4.5, read-out: Solubility, Estimation 2b): 233 mg/mL
solubility ([1]; buffer solution pH 4.5, pH 4.5, aqueous buffer, Buffer pH 4.5, solvent added until dissolution of 50 mg solid, read-out: Solubility, Estimation 1): 213 mg/mL
solubility ([1]; buffer solution pH 6.8, pH 6.8, aqueous buffer, Buffer pH 6.8, read-out: Mean solubility): 275 mg/mL
solubility at 15 min ([1]; buffer solution pH 6.8, pH 6.8, aqueous buffer, Buffer pH 6.8, read-out: Solubility, Estimation 2a): 302 mg/mL
solubility at 15 min ([1]; buffer solution pH 6.8, pH 6.8, aqueous buffer, Buffer pH 6.8, read-out: Solubility, Estimation 2b): 280 mg/mL
solubility ([1]; buffer solution pH 6.8, pH 6.8, aqueous buffer, Buffer pH 6.8, solvent added until dissolution of 50 mg solid, read-out: Solubility, Estimation 1): 241 mg/mL
solubility ([1]; water, Water, read-out: Mean solubility): 394 mg/mL
solubility at 15 min ([1]; water, Water, read-out: Solubility, Estimation 2a): 463 mg/mL
solubility at 15 min ([1]; water, Water, read-out: Solubility, Estimation 2b): 462 mg/mL
solubility ([1]; water, Water, solvent added until dissolution of 50 mg solid, read-out: Solubility, Estimation 1): 257 mg/mL
Powder stability, change on storage ([2]; 3 months' storage at 2-4° C.): no significant change
Powder stability, change on storage ([2]; 3 months' storage at RT): no significant change
Stability in aqueous media at RT ([3]; Water, 30 Min): 97.06%
Stability in aqueous media at RT ([3]; Water, 1 hour): 96.98%
Stability in aqueous media at RT ([3]; Water, 2 hours): 96.89%
Stability in aqueous media at RT ([3]; Water, 4 hours): 96.62%
Stability in aqueous media at RT ([3]; Water, 6 hours): 96.42%
Stability in aqueous media at RT ([3]; Water, 1 day): 94.45%
Stability in aqueous media at RT ([3]; Water, 2 days): 91.07%
Stability in aqueous media at RT ([3]; Water, 7 days): 77.12%
Stability in aqueous media at RT ([3]; Water, time 0 (API Powder)): 97.21%
Degradation of the API in aqueous media ([3]; aqueous media, RT, FIG. 4): significant short-term degradation
Stability in aqueous media at RT ([3]; pH 1.2, 30 Min): 97.03%
Stability in aqueous media at RT ([3]; pH 1.2, 1 hour): 96.83%
Stability in aqueous media at RT ([3]; pH 1.2, 2 hours): 96.42%
Stability in aqueous media at RT ([3]; pH 1.2, 4 hours): 95.71%
Stability in aqueous media at RT ([3]; pH 1.2, 6 hours): 95.14%
Stability in aqueous media at RT ([3]; pH 1.2, 1 day): 88.40%
Stability in aqueous media at RT ([3]; pH 1.2, 2 days): 80.05%
Stability in aqueous media at RT ([3]; pH 1.2, 7 days): 30.60%
Stability in aqueous media at RT ([3]; pH 1.2, time 0 (API Powder)): 97.21%
Stability in aqueous media at RT ([3]; pH 4.5, 30 Min): 96.45%
Stability in aqueous media at RT ([3]; pH 4.5, 1 hour): 96.35%
Stability in aqueous media at RT ([3]; pH 4.5, 2 hours): 96.24%
Stability in aqueous media at RT ([3]; pH 4.5, 4 hours): 95.46%
Stability in aqueous media at RT ([3]; pH 4.5, 6 hours): 94.87%
Stability in aqueous media at RT ([3]; pH 4.5, 1 day): 90.73%
Stability in aqueous media at RT ([3]; pH 4.5, 2 days): 84.24%
Stability in aqueous media at RT ([3]; pH 4.5, 7 days): 57.17%
Stability in aqueous media at RT ([3]; pH 4.5, time 0 (API Powder)): 97.21%
Stability in aqueous media at RT ([3]; pH 6.8, 30 Min): 91.08%
Stability in aqueous media at RT ([3]; pH 6.8, 1 hour): 87.32%
Stability in aqueous media at RT ([3]; pH 6.8, 2 hours): 80.70%
Stability in aqueous media at RT ([3]; pH 6.8, 4 hours): 65.65%
Stability in aqueous media at RT ([3]; pH 6.8, 6 hours): 57.40%
Stability in aqueous media at RT ([3]; pH 6.8, 1 day): 9.48%
Stability in aqueous media at RT ([3]; pH 6.8, 2 days): 7.48%
Stability in aqueous media at RT ([3]; pH 6.8, 7 days): 1.77%
Stability in aqueous media at RT ([3]; pH 6.8, time 0 (API Powder)): 97.21%

CCCC(CCC)C(=O)Nc1ccn([C@@H]2O[C@H](CO)[C@@H](O)C2(F)F)c(=O)n1 [LY2334737]
Degradation by CDA (CDA): significantly less prone to degradation by CDA
Hepatic toxicity (Japanese patients): unexpected hepatic toxicities

Nc1ccn([C@@H]2O[C@H](CO)[C@@H](O)C2(F)F)c(=O)n1 [gemcitabine, Gemcitabine]
Oral bioavailability [4]: poor
Death or gastrointestinal toxicity after intravenous dosing (mice; comparable exposures via intravenous dosing): did not result in death or gastrointestinal toxicity
Intestinal lesions after single oral dose (mice; single oral (gavage) dose of 167, 333, or 500 mg/kg, Horton et al. 2004): moderate-to-marked loss of mucosal epithelium (atrophic enteropathy)
